Test results: ChEMBL document CHEMBL1201862, “PubChem BioAssay data set” (2004)
Activity calls are given as the source filed them.

Assays:
[1] = biological target: T1, Tyrosine-protein phosphatase non-receptor type 22 (Homo sapiens, UniProt Q9Y2R2); type: functional
T1 sequence (Q9Y2R2 whole entry): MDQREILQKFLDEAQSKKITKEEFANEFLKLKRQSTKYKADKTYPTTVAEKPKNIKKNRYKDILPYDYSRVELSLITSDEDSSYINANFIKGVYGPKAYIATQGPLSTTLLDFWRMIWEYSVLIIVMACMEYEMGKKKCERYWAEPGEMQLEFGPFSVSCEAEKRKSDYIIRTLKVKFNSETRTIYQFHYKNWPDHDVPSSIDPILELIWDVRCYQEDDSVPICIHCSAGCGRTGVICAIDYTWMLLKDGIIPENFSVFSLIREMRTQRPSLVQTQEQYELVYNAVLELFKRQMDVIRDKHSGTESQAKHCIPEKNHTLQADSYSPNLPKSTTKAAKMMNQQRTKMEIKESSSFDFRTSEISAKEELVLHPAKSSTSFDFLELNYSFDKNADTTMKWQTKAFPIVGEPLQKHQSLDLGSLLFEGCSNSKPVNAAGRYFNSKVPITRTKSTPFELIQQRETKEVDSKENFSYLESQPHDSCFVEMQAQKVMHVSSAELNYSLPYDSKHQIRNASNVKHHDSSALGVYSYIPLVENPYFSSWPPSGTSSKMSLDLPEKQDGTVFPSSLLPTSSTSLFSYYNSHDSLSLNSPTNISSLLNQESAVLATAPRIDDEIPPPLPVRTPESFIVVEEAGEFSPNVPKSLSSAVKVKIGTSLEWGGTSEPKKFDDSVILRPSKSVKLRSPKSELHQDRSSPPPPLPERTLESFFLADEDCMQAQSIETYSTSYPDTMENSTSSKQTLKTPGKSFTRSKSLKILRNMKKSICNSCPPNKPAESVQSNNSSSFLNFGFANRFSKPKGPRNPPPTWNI

[2] = biological target: T2, Tyrosine-protein phosphatase non-receptor type 7 (Homo sapiens, UniProt P35236); type: functional
T2 sequence (P35236 whole entry): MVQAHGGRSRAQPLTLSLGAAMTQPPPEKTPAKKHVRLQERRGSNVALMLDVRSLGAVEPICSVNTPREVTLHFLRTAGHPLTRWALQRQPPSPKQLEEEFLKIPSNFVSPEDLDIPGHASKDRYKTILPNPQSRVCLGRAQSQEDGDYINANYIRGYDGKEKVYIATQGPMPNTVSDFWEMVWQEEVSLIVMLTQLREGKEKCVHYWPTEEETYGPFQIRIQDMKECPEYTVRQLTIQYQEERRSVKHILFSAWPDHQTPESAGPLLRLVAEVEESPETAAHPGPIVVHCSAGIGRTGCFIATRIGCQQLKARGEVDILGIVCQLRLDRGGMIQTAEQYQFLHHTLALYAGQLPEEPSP

[3] = biological target: T1, Tyrosine-protein phosphatase non-receptor type 22; type: functional; remark: listed apart in the source
[4] = Shn3 3'UTR reporter inhibitors, dose response, cell-based, Clone20 osteoblasts, firefly luciferase, cherry-picked (AID 624132); type: functional;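 further: firefly luciferase luminescence from reporter carrying the Shn3 3'UTR in osteoblasts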
[5] = inhibitors of PGC1a acetylation in cells, dose response, cell-based, cherry-picked samples (AID 720514); type: functional;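 further: potency may reflect raised or lowered acetylation signal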
INS1 = assay: beta cell apoptosis inhibitors, cytokine rescue, dose response, luminescence, retest (AID 449756); type: functional, cell-based; conditions: Rattus norvegicus;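 further: cell death triggered by IL-1 beta plus TNF-alpha plus IFN-gamma mixture; protective hits raise ATP signal compared with cytokine alone wells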
Protein RecA = biological target: T3, Protein RecA (Mycobacterium tuberculosis, UniProt P9WHJ3); assay: Fluorescence Cell-Free Homogeneous Dose Retest to Identify Inhibitors of RecA-Intein Splicing Activity. [Related pubchem assays (depositor defined):AID2097, AID2223, AID489010, AID492950]; type: functional
T3 sequence (P9WHJ3 whole entry): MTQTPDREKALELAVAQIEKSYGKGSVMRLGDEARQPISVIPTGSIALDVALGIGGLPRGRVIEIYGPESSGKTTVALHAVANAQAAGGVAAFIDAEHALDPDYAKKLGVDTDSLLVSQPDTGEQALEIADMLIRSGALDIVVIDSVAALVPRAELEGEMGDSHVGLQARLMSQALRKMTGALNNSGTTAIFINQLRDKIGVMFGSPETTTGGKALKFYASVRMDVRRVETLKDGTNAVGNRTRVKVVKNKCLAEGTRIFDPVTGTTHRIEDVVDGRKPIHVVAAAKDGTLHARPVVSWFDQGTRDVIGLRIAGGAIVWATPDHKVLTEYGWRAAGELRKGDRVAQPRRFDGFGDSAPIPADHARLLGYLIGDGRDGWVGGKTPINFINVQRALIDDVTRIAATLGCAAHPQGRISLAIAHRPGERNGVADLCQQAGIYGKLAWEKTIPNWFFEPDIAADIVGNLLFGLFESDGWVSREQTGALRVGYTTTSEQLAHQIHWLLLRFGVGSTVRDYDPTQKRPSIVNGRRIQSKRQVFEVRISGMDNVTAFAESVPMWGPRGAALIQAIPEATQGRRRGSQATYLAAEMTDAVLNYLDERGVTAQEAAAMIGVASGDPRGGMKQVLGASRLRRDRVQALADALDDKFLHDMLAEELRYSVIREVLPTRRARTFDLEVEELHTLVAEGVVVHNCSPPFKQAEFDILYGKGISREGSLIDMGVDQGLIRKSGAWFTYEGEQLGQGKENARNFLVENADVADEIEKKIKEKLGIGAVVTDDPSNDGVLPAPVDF

[6] = Fluorescence-based cell-based high throughput dose response assay for inhibitors of the interaction of nucleotide-binding oligomerization domain containing 2 (NOD2) and the receptor-interacting serine-threonine kinase 2 (RIPK2).; type: functional; conditions: Homo sapiens
[7] = HepG2 cell cytotoxicity, dose response, cytotoxicity control for Shn3 inhibitor project, CellTiter-Glo, cherry-picked (AID 624134); type: functional, cell-based
[8] = growth suppression of beta-catenin-knockout colon cells, dose response, cell-based, HCT116, human colon tumor (AID 1045); type: functional;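 further: HCT116 colon tumor cells with beta catenin knocked out; cells exposed to compound for 60 hours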
[9] = biological target: T4, Replicative DNA helicase DnaB (Mycobacterium tuberculosis, UniProt P9WMR3); assay: DnaB intein splicing inhibitors, dose response, biochemical, cell-free fluorescence (AID 449749); type: functional
T4 sequence (P9WMR3 whole entry): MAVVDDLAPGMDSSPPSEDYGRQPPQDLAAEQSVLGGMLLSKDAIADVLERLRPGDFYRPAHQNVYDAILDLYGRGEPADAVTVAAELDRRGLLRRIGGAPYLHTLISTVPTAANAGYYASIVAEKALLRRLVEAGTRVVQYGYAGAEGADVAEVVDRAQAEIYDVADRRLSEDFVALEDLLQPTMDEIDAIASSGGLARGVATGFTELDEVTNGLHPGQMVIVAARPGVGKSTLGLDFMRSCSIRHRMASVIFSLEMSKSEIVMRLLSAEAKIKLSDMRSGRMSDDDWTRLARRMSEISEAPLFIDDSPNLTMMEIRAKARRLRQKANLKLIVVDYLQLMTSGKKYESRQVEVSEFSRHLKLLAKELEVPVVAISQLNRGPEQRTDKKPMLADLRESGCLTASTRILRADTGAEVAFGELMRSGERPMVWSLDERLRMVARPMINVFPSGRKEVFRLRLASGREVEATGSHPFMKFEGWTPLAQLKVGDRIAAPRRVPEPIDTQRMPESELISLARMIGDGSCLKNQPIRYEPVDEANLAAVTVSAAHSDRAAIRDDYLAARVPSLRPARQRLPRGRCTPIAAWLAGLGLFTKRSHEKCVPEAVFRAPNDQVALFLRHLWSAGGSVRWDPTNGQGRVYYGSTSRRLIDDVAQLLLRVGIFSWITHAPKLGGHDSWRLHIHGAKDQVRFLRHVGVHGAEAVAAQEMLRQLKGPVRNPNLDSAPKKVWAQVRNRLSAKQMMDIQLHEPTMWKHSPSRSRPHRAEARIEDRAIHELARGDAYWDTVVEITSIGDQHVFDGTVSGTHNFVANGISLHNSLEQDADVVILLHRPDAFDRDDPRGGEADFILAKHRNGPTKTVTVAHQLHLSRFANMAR

[10] = biological target: G-protein coupled receptor 55 (Homo sapiens, UniProt Q9Y2T6); assay: GPR55 agonists via beta-arrestin recruitment, primary screen, imaging, U2OS cells, beta-arrestin-GFP redistribution (AID 1961); type: functional
[11] = control 3'UTR Renilla luciferase suppression, dose response, counter-screen for Shn3 inhibitor project, cell-based, Clone20-Shn3RL, cherry-picked (AID 624133); type: functional
[12] = growth suppression of PTEN-null colon cells, dose response, cell-based, HCT116 PTEN knockout (AID 1047); type: functional;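 further: HCT116 colon tumor cells with PTEN knocked out; cells exposed to compound for 60 hours before readout; potency for loss of cell viability measured by luminescence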
[13] = biological target: T5, E3 ubiquitin-protein ligase XIAP (Homo sapiens, UniProt P98170); assay: XIAP antagonists, biochemical, IAP family, fluorescence polarization (AID 1018); type: functional
[14] = biological target: T5, E3 ubiquitin-protein ligase XIAP; assay: Counter Screen using XIAP-Bir3 for Chemical Antagonists of Bir1/2 domains of IAP-family anti-apoptotic proteins. [Related pubchem assays (depositor defined):AID1018, AID1449, AID1514, AID1638, AID1749, AID1750, AID488957, AID488963]
[15] = biological target: T6, Short transient receptor potential channel 4 (Mus musculus, UniProt Q9QUQ5); assay: mouse TRPC4 channel activators, dose response, cell-based, HEK293 TRPC4/mu-opioid, Fluo-4 calcium (AID 434937); type: functional
T6 sequence (Q9QUQ5 whole entry): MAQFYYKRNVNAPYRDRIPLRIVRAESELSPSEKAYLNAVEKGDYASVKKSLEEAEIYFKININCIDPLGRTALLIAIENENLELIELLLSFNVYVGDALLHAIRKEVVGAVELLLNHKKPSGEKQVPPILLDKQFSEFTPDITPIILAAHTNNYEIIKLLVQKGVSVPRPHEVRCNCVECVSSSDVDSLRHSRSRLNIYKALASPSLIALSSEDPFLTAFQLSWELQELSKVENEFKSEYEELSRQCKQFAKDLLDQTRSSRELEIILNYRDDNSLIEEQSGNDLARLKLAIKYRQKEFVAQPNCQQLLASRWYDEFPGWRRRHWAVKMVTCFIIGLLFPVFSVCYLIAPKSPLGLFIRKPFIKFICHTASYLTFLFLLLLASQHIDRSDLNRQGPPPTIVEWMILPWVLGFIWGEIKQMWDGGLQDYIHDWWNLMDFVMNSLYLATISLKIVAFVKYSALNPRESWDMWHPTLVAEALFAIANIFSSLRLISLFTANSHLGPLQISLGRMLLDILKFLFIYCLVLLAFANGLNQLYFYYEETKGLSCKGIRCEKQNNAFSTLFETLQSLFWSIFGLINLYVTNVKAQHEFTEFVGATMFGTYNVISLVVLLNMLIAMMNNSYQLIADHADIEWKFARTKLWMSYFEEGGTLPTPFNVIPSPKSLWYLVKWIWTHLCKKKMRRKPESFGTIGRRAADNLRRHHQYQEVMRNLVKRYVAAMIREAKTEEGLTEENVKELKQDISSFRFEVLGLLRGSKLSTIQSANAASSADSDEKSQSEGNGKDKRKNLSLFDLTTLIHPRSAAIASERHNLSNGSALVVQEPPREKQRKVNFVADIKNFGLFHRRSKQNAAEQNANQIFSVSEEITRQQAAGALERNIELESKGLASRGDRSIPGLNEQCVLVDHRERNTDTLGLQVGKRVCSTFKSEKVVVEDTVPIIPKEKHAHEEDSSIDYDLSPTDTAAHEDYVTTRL

cells = type: functional
[16] = Vero E6 cell cytotoxicity, dose response, cytotoxicity control for non-replicating M. tuberculosis project, secondary assay (AID 492998); type: functional, VeroE6; conditions: Vero C1008
[17] = cytotoxicity in KRAS-transformed pancreatic duct cells, primary screen, cell-based, fluorescence, HTS (AID 431); type: functional; conditions: Homo sapiens;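 further: cell line used: HPDE-C7K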
[18] = cytotoxicity in HPDE-C7 cells, cell-based, fluorescence, HTS (AID 430); type: functional; conditions: Homo sapiens
[19] = THP-1 cell cytotoxicity, dose response, cytotoxicity control for non-replicating M. tuberculosis project (AID 489025); type: functional

T5 sequence (P98170 whole entry): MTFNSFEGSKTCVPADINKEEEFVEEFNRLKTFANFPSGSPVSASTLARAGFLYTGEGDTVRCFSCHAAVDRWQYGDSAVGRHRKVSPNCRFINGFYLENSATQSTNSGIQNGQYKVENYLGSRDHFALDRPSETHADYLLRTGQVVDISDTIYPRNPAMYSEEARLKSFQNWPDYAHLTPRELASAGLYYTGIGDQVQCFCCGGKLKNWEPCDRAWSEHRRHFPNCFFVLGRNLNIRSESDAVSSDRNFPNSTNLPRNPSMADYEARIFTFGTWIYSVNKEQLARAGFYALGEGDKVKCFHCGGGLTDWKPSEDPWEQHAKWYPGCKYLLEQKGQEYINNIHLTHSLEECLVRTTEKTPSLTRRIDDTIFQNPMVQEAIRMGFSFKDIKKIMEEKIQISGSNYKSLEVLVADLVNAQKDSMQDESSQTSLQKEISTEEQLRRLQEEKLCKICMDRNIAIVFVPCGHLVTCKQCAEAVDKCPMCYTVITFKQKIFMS
G-protein coupled receptor 55, sequence (Q9Y2T6 whole entry): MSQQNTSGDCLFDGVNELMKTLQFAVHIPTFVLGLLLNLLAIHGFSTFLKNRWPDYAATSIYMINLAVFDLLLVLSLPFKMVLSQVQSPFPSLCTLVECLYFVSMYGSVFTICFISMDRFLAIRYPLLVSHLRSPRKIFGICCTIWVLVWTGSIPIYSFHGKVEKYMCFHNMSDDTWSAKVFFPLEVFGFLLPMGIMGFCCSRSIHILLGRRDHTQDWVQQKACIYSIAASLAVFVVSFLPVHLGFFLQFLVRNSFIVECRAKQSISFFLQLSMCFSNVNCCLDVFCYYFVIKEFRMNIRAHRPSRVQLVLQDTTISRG

In the case of CCn1cc(CNC(=O)c2cc([N+](=O)[O-])c(C)c([N+](=O)[O-])c2)cn1, the IC50 [1] is reported as > 79.4 µM (inactive), the IC50 [2] is reported as > 79.4 µM (inactive) and the IC50 [3] is reported as > 79.4 µM (inactive).
In the case of O=C(NCc1cccnc1)/C(=C/c1ccc(-c2ccc(Cl)cc2)o1)S(=O)(=O)c1ccccc1, the AC50 [4] is reported as 5.35 µM (active), the AC50 [5] is reported as 6.04 µM (active) and the AC50 (INS1) is reported as 6.51 µM (active). For the same molecule, the EC50 (Protein RecA) was 27.3 µM (active), the IC50 [6] was 6.4 µM (active) and the AC50 [7] was 11.9 µM (active). For the same molecule, the EC50 [8] was 4.08 µM (active), the AC50 [9] was > 380 µM (inactive) and the EC50 [10] was > 32 µM (inactive). The AC50 [11] was 11.8 µM (active) and the EC50 [12] was 4.4 µM (active).
With CCOc1ccc(C(=O)Nc2cccc(NC(=O)c3cccs3)c2)cc1[N+](=O)[O-] the IC50 [13] was > 100 µM (not active) and the IC50 [14] was > 100 µM (inactive).
For CC(C)(C)NC(=O)C(c1ccncc1)N(C(=O)Cn1nnc(-c2ccc(F)cc2)n1)c1ccccc1F (configuration not stated), the IC50 [13] was > 100 µM (not active) and the IC50 [14] was > 100 µM (inactive).
For CN(C)C=C1C(=O)N(C2CCCCC2)C(=O)N(C2CCCCC2)C1=O, the EC50 [15] was 9.44 µM (active), the IC50 (cells) was 11.2 µM (active) and the CC50 [16] was > 20 µM (active). For the same molecule, the EC50 [17] was 13.7 µM (active), the EC50 [18] was 9.27 µM (active) and the CC50 [19] was > 40 µM (active).
In the case of COC(=O)C1=C(C(=O)OC)N2C=CC=CC2(C)C(C(=O)OC)=C1C(=O)OC (configuration not stated), the IC50 [13] is reported as > 100 µM (not active) and the IC50 [14] is reported as > 100 µM (inactive).
For Brc1ccc(C2Nc3cccc4cccc(c34)N2)o1, the IC50 [1] was > 79.4 µM (inactive), the IC50 [2] was > 79.4 µM (inactive) and the IC50 [3] was > 79.4 µM (inactive).
In the case of Cn1c(SCC(=O)N2CCN(c3ccccc3)CC2)nnc1-c1cc2ccccc2o1, the IC50 [1] is reported as > 79.4 µM (inactive), the IC50 [2] is reported as > 79.4 µM (inactive) and the IC50 [3] is reported as > 79.4 µM (inactive).
